Data reported in US6476079B1, “Devices for the delivery of drugs having antiprogestinic properties” (priority 1999, dated 2002).

Assay: Permeation test of antiprogestins through elastomer membranes (two-compartment diffusion cell)
Assay type: physicochemical
Conditions: 37° C.
Protocol: The assay apparatus described in the publication Yie W. Chien, Transdermal Controlled Systemic Medications, Marcel Dekker Inc., New York and Basel 1987, page 173, was used in the tests.
The drug fluxes (permeations) through membranes were measured with a two-compartment diffusion cell at 37° C. (Side-Bi-Side™ diffusion cell, Crown Glass Company). The apparatus consisted of two concentric cells (donor and receptor compartments) that were separated by the elastomer membrane to be investigated. […] A drug solution and solvent (without drug) was added into the donor and the receptor compartments. At each predetermined time interval, samples were withdrawn from the receptor compartment and replaced with the same volume of solvent. The amount of the drug that permeated through the membrane was measured by HPLC. In all measurements, the thickness (0.4 mm) of the membrane and the surface area of the membranes were constant.
In the tests described below, the permeation rates of two different drugs through a 0.4-mm-thick elastomer membrane were measured by using the assay apparatus described above. The tables below show the effect of the concentration of PEO groups (% by weight of the said compositions) on the permeation rates of the different drugs for elastomers prepared from different composition types. The tables show the relative permeation as compared with a commercial crosslinked dimethyl siloxane-vinyl methyl siloxane elastomer (Mn approximately 400,000 g/mol) containing a silica filler.

[1] = composition type A, PEO concentration 4.7 % by weight, 0.4 mm membrane, relative to reference elastomer
[2] = composition type A, PEO concentration 5.1 % by weight, 0.4 mm membrane, relative to reference elastomer
[3] = reference membrane: commercial crosslinked dimethyl siloxane-vinyl methyl siloxane elastomer with silica filler, PEO 0 % by weight, 0.4 mm
[4] = composition type B, PEO concentration 3.1 % by weight, 0.4 mm membrane, relative to reference elastomer
[5] = composition type B, PEO concentration 4.1 % by weight, 0.4 mm membrane, relative to reference elastomer
[6] = composition type B, PEO concentration 5.0 % by weight, 0.4 mm membrane, relative to reference elastomer
[7] = composition type B, PEO concentration 7.5 % by weight, 0.4 mm membrane, relative to reference elastomer
[8] = composition type B, PEO concentration 9.8 % by weight, 0.4 mm membrane, relative to reference elastomer

Compound	Relative permeation [1]	Relative permeation [2]	Relative permeation [3]	Relative permeation [4]	Relative permeation [5]	Relative permeation [6]	Relative permeation [7]	Relative permeation [8]	Relative permeation (composition type B, PEO concentration 1.4 % by weight, 0.4 mm membrane, relative to reference elastomer)	Relative permeation (composition type A, PEO concentration 5.3 % by weight, 0.4 mm membrane, relative to reference elastomer)
COC[C@]1(OC)CC[C@H]2[C@@H]3CCC4=CC(=O)CCC4=C3[C@@H](c3ccc(/C=N/O)cc3)C[C@@]21C [Compound 1, 4-[17β-methoxy-17α-(methoxymethyl)-3-oxoestra-4,9-dien-11β-yl]benzaldehyde-1-(E)-oxime]	3.5	5.3	1							
CCNC(=O)ON=Cc1ccc(C2CC3(C)C(CCC3(COC)OC)C3CCC4=CC(=O)CCC4=C23)cc1 (stereo not drawn) [Compound 2, 4-[17β-Methoxy-17α-(methoxymethyl)-3-oxoestra-4,9-dien-11β-yl]benzaldehyde-1-[O-(ethylamino)carbonyl]oxime]	4.1	7.6	1	3.7	4.1	5.8	11.5	17.3		
CCSC(=O)O/N=C/c1ccc([C@H]2C[C@@]3(C)[C@@H](CC[C@@]3(COC)OC)[C@@H]3CCC4=CC(=O)CCC4=C32)cc1 [Compound 3]			1					6.4	2.1	
CC(=O)c1ccc([C@H]2C[C@@]3(C)[C@@H](CC[C@@]3(O)C(F)(F)C(F)(F)F)[C@@H]3CCC4=CC(=O)CCC4=C32)cc1 [Compound 4, 11β-(4-Acetylphenyl)-17β-hydroxy-17α-(1,1,2,2,2-pentafluoroethyl)estra-4,9-dien-3-one]			1				16.4	27.6		
CN(C)c1ccc([C@H]2C[C@@]3(C)[C@@H](CC[C@@]3(O)/C=C\CO)[C@@H]3CCC4=CC(=O)CC[C@@H]4[C@H]32)cc1 [Compound 5, Estr-4-en-3-one, 11-[4-(dimethylamino)phenyl]-17-hydroxy-17-(3-hydroxy-1-propenyl)-,[11.beta,17β,17(Z)]-(9CI)]	4.1		1	6.0	6.7	10.7	18.7	37.2		
(Z)-6′-(4-Cyanophenyl)-17-β-hydroxy-17-α-(3-isovaleryloxy-1-propenyl))-9,11-α-diydro-4′H-naphth [3′,2′,1′:10,9,11]estr-4-en-3-one [Compound 6]	2.9		1							5.9
